Results: patent publication US9637486B2, “Btk inhibitors” (MERCK SHARP & DOHME CORP., priority 2013, dated 2017)

Target: BTK enzyme (hBTK, full-length recombinant) (Homo sapiens (Human), UniProt Q06187)
Test: Btk enzyme activity assay, LANCE TR-FRET
Format: biochemical
Details: 50 pM hBTK, 2 μM biotin-A5-peptide, 25 μM ATP; 60 minute compound & enzyme incubation; read-out: BTK binding IC50
Description: Also BTK enzymatic activity was determined with the LANCE (Lanthanide Chelate Excite) TR-FRET (Time-resolved fluorescence resonance energy transfer) assay. […] Following a 60 minute compound & enzyme incubation, each reaction was initiated by the addition of 2.5 μL 1× kinase buffer containing 8 μM biotinylated “A5” peptide (Biotin-EQEDEPEGDYFEWLE-NH2), and 100 μM ATP. The final reaction in each well of 10 μL consists of […], 2 μM biotin-A5-peptide, and 25 μM ATP. Phosphorylation reactions were allowed to proceed for 120 minutes. Reactions were immediately quenched by the addition of 20 uL of 1× quench buffer (15 mM EDTA, 25 mM Hepes 7.3, and 0.1% Triton X-100) containing detection reagents (0.626 nM of LANCE-Eu-W1024-anti-phosphoTyrosine antibody, PerkinElmer and 86.8 nM of Streptavidin-conjugated Dylight 650, Dyomics/ThermoFisher Scientific). After 60 minutes incubation with detection reagents, reaction plates were read on a PerkinElmer EnVision plate reader using standard TR-FRET protocol. Briefly, excitation of donor molecules (Eu-chelate:anti-phospho-antibody) with a laser light source at 337 nm produces energy that can be transferred to Dylight-650 acceptor molecules if this donor:acceptor pair is within close proximity. Fluorescence intensity at both 665 nm (acceptor) and 615 nm (donor) are measured and a TR-FRET ratio calculated for each well (acceptor intensity/donor intensity). […] (Log10) compound concentrations. Btk Enzyme Activity Assay Method BTK enzymatic activity was determined with the LANCE (Lanthanide Chelate Excite) TR-FRET (Time-resolved fluorescence resonance energy transfer) assay. […] Following a 60 minute compound & enzyme incubation, each reaction was initiated by the addition of 2.5 μL 1× kinase buffer containing 8 μM biotinylated “A5” peptide (Biotin-EQEDEPEGDYFEWLE-NH2), and 100 μM ATP. The final reaction in each well of 10 μL consists of 50 pM hBTK, 2 μM biotin-A5-peptide, and 25 μM ATP. Phosphorylation reactions were allowed to proceed for 120 minutes. Reactions were immediately quenched by the addition of 20 uL of 1× quench buffer (15 mM EDTA, 25 mM Hepes 7.3, and 0.1% Triton X-100) containing detection reagents (0.626 nM of LANCE-Eu-W1024-anti-phosphoTyrosine antibody, PerkinElmer and 86.8 nM of Streptavidin-conjugated Dylight 650, Dyomics/ThermoFisher Scientific). After 60 minutes incubation with detection reagents, reaction plates were read on a PerkinElmer EnVision plate reader using standard TR-FRET protocol. Briefly, excitation of donor molecules (Eu-chelate:anti-phospho-antibody) with a laser light source at 337 nm produces energy that can be transferred to Dylight-650 acceptor molecules if this donor:acceptor pair is within close proximity. Fluorescence intensity at both 665 nm (acceptor) and 615 nm (donor) are measured and a TR-FRET ratio calculated for each well (acceptor intensity/donor intensity). […] (Log10) compound concentrations.

BTK enzyme (hBTK, full-length recombinant), sequence (Q06187 whole entry): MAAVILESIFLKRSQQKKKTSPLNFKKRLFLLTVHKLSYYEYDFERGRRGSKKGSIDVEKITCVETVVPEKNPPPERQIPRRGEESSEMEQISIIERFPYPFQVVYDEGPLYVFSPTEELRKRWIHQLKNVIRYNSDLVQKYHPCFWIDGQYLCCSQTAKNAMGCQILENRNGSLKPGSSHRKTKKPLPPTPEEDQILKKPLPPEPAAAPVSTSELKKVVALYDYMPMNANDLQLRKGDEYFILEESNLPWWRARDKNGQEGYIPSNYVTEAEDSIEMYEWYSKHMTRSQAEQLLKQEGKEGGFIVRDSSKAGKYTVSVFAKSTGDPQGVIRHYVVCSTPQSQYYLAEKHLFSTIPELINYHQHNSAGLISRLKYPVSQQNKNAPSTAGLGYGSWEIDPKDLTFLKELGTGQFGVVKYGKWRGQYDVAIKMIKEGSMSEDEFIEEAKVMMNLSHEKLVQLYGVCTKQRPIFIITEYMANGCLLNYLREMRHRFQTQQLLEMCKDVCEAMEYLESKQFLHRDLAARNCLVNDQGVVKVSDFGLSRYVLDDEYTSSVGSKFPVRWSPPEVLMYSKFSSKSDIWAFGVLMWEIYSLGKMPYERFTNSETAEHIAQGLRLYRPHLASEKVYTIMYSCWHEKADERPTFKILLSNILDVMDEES

Compound	IC50 [nM]
CC1(C(=O)N2CCC[C@@H](c3nn(-c4ccc(Oc5ccccc5)cc4)c4c(N)nccc34)C2)COC1 [Example 1, (R)-(3-(7-amino-1-(4-phenoxyphenyl)-1H-pyrazolo[3,4-c]pyridin-3-yl)piperidin-1-yl)(3-methyloxetan-3-yl)methanone]	1.7
Nc1nccc2c([C@@H]3CCCN(C(=O)C4CC4(F)F)C3)nn(-c3ccc(Oc4ccccc4)cc3)c12 (stereo partly drawn) [Example 4, 3-{(3R)-1-[(2,2-difluorocyclopropyl)carbo-nyl]piperidin-3-yl}-1-(4-phenoxyphenyl)-1H-pyrazolo[3,4-c]pyridin-7-amine]	9.3
CC1(C(=O)N2CCC[C@@H](c3nn(-c4ccc(Oc5ccc(F)cc5)cc4)c4c(N)nccc34)C2)COC1 [Example 26, (R)-(3-(7-amino-1-(4-(4-fluorophenoxy)phenyl)-1H-pyrazolo[3,4-c]pyridin-3-yl)piperidin-1-yl)(3-methyloxetan-3-yl)methanone]	56.9
C[C@H]1CC[C@@H](c2nn(-c3ccc(Oc4cccc(F)c4)cc3)c3c(N)nccc23)CN1C(=O)C1(C)COC1 [Example 28, 1-[4-(3-fluorophenoxy)phenyl]-3-{(3R,6S)-6-methyl-1-[(3-methyloxetan-3-yl)carbonyl]piperidin-3-yl}-1H-pyrazolo[3,4-c]pyridin-7-amine]	3.8
C[C@@H](O)C(=O)N1C[C@H](c2nn(-c3ccc(Oc4cccc(F)c4)cc3)c3c(N)nccc23)CC[C@@H]1C [Example 29, (2R)-1-[(2S,5R)-5-{7-amino-1-[4-(3-fluorophenoxy)phenyl]-1H-pyrazolo[3,4-c]pyridin-3-yl}-2-methylpiperidin-1-yl]-1-oxopropan-2-ol]	5.8
